SMILES strings stand for the structures.

In the assay the target is T1, GAL4-RORγ (GAL4 DBD fused to the ROR gamma ligand-binding domain) (Homo sapiens, UniProt P51449).
T1 construct: expressed in transfected cells; host or cells: HG5LN (HeLa line with GAL4-responsive luciferase reporter)
T1 sequence (P51449 269-508 limits assumed): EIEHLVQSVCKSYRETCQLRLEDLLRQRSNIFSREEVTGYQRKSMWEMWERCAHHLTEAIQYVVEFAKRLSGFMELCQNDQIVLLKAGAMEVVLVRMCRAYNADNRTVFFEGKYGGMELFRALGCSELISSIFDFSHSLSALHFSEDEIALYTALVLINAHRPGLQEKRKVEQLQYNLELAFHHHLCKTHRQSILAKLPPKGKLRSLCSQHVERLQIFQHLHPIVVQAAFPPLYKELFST
Briefly: GAL4-RORγ transactivation (luciferase reporter, HG5LN HeLa line). The format is cell-based. The conditions noted are these: HG5LN HeLa cells, 18 hours incubation, luciferase luminescence, read-out: IC50 hRORg. The source says: In the tables described above, the median inhibitory concentrations IC50 for the compounds belonging to formula (I) according to the invention have been given according to the following models:
GAL4-RORγ Transactivation
The RORγ transactivation model was developed from the line HG5LN, which is a HeLa line that stably expresses a luciferase reporter gene controlled by a pentamer of the GAL4 recognition domain of yeast and of a β-globin promoter. The HG5LN line was stably transfected by the DNA-binding domain (DBD) of GAL4 fused to the ROR gamma ligand-binding domain (LBD). Molecules that inhibit the ROR gamma constitutive activity reduce the luciferase expression, thus leading to a reduction in the emitted luminescence.
The cells are seeded in 384-well plates (5000 cells in 45 μL/well of culture medium containing 10% fetal calf serum) and incubated for 4 hours at 37° C., 5% CO2. 5 μL of the test molecules (compounds described in the tables described above) are then added to each well and the plates are incubated for 18 hours at a temperature of 37° C. under 5% of CO2. 20 μL of luciferase substrate (Promega) are added to each well and the luminescence emitted is read by a microplate reader.
The luminescence units (“RLU”) are normalized by positive controls (“POS” containing a saturated concentration of N-(2,2,2-trifluoroethyl)-N-[4-[2,2,2-trifluoro-1-hydroxy-1-(trifluoromethyl)ethyl]phenyl])benzenesulfonamide and negative controls (“NEG” containing DMSO): % inhibition=((RLU−NEG)*100)/(POS−NEG). The IC50 values are calculated from a 4-parameter logistic model using the XLFit software (IDBS).
Background: Reporter assays use an easily measured gene product as a stand-in for the process of interest.
As to `CCc1ccc(N(CC(C)C)S(=O)(=O)c2ccc3c(cnn3C3CCOCC3)c2)cc1` [Compound 38, 1-(tetrahydropyran-4-yl)-1H-indazole-5-sulfonic acid (4-ethylphenyl)isobutylamide], the IC50 was > 1000 nM.
For the compound `CCc1ccc(N(CC(C)C)S(=O)(=O)c2ccc3c(cnn3C3CCN(C(C)=O)C3)c2)cc1` (stereo not drawn) [Compound 40, 1-(1-acetylpyrrolidin-3-yl)-1H-indazole-5-sulfonic acid (4-ethylphenyl)isobutylamide], the IC50 is > 1000 nM.
As for `CCc1ccc(N(C2CCC2)S(=O)(=O)c2ccc3c(cnn3CC3CCOCC3)c2)cc1` [Compound 41, 1-(tetrahydropyran-4-ylmethyl)-1H-indazole-5-sulfonic acid cyclobutyl(4-ethylphenyl)amide], the figure is > 1000 nM; as for `Cc1ccc(F)cc1N(CC(C)C)S(=O)(=O)c1ccc2c(cnn2CC2CCOCC2)c1` [Compound 42, 1-(tetrahydropyran-4-ylmethyl)-1H-indazole-5-sulfonic acid (5-fluoro-2-methylphenyl)isobutylamide], 100 to 1000 nM.
As for `Cc1c(F)cccc1N(CC(C)C)S(=O)(=O)c1ccc2c(cnn2CC2CCOCC2)c1` [Compound 43, 1-(tetrahydropyran-4-ylmethyl)-2H-indazole-5-sulfonic acid (3-fluoro-2-methylphenyl)isobutylamide], the IC50 fell in the range of 100 to 1000 nM.
Regarding `CC(C)CN(c1cccc(Cl)c1)S(=O)(=O)c1ccc2c(cnn2CC2CCOCC2)c1` [Compound 44, 1-(tetrahydropyran-4-ylmethyl)-1H-indazole-5-sulfonic acid (5-chlorophenyl)isobutylamide], the half-inhibitory concentration (IC50) was > 1000 nM.
On to `CC(C)CN(c1ccccc1Cl)S(=O)(=O)c1ccc2c(cnn2CC2CCOCC2)c1` [Compound 45, 1-(tetrahydropyran-4-ylmethyl)-1H-indazole-5-sulfonic acid (2-chlorophenyl)isobutylamide], for which the IC50 was > 1000 nM.
Regarding `CC(C)CN(c1ccc(F)cc1)S(=O)(=O)c1ccc2c(cnn2CC2CCOCC2)c1` [Compound 46, 1-(tetrahydropyran-4-ylmethyl)-1H-indazole-5-sulfonic acid (4-fluorophenyl)isobutylamide], the IC50 is > 1000 nM.
As for `Cc1ccc(N(CC(C)C)S(=O)(=O)c2ccc3c(cnn3CC3CCOCC3)c2)cc1` [Compound 47, 1-(tetrahydropyran-4-ylmethyl)-1H-indazole-5-sulfonic acid isobutyl-p-tolylamide], the figure is > 1000 nM.
`Cc1ccccc1N(CC(C)C)S(=O)(=O)c1ccc2c(cnn2CC2CCOCC2)c1` [Compound 48, 1-(tetrahydropyran-4-ylmethyl)-1H-indazole-5-sulfonic acid isobutyl-o-tolylamide]: the IC50 is > 1000 nM.
As to `CC(C)CN(c1ccc(OC(F)(F)F)cc1)S(=O)(=O)c1ccc2c(cnn2CC2CCOCC2)c1` [Compound 49, 1-(tetrahydropyran-4-ylmethyl)-1H-indazole-5-sulfonic acid (4-trifluoromethoxyphenyl)isobutylamide], the IC50 is > 1000 nM.
As for `CC(C)CN(c1ccc(C(C)C)cn1)S(=O)(=O)c1ccc2c(cnn2CC2CCOCC2)c1` [Compound 50, 1-(tetrahydropyran-4-ylmethyl)-1H-indazole-5-sulfonic acid isobutyl(5-isopropylpyridin-2-yl)amide], the IC50 is > 1000 nM.
Turning to `CC(C)CN(Cc1cccc(Cl)c1)S(=O)(=O)c1ccc2c(cnn2CC2CCOCC2)c1` [Compound 51, 1-(tetrahydropyran-4-ylmethyl)-1H-indazole-5-sulfonic acid (3-chlorobenzyl)isobutylamide], the IC50 is > 1000 nM.
Take `CC(C)CN(Cc1ccccc1C(F)(F)F)S(=O)(=O)c1ccc2c(cnn2CC2CCOCC2)c1` [Compound 52, 1-(tetrahydropyran-4-ylmethyl)-1H-indazole-5-sulfonic acid isobutyl(2-trifluoromethylbenzyl)amide]: the IC50 lay within 100 to 1000 nM.
For `Cc1cccc(F)c1N(CC(C)C)S(=O)(=O)c1ccc2c(cnn2CC2CCOCC2)c1` [Compound 53, 1-(tetrahydropyran-4-ylmethyl)-1H-indazole-5-sulfonic acid (2-fluoro-6-methylphenyl)isobutylamide], the IC50 was > 1000 nM.
Turning to `Cc1cc(F)ccc1N(CC(C)C)S(=O)(=O)c1ccc2c(cnn2CC2CCOCC2)c1` [Compound 54, 1-(tetrahydropyran-4-ylmethyl)-1H-indazole-5-sulfonic acid (4-fluoro-2-methylphenyl)isobutylamide], the IC50 lay in the range of 100 to 1000 nM.
Turning to `COc1ccc(N(CC(C)C)S(=O)(=O)c2ccc3c(cnn3CC3CCOCC3)c2)c(C)c1` [Compound 55, 1-(tetrahydropyran-4-ylmethyl)-1H-indazole-5-sulfonic acid isobutyl(4-methoxy-2-methylphenyl)amide], the half-inhibitory concentration (IC50) lay in the range of 100 to 1000 nM.
For the compound `Cc1cc(C#N)ccc1N(CC(C)C)S(=O)(=O)c1ccc2c(cnn2CC2CCOCC2)c1` [Compound 57, 1-(tetrahydropyran-4-ylmethyl)-1H-indazole-5-sulfonic acid (4-cyano-2-methylphenyl)isobutylamide], the IC50 lay within 100 to 1000 nM.
In the case of `CC(C)CN(c1ccccc1C(F)(F)F)S(=O)(=O)c1ccc2c(cnn2CC2CCOCC2)c1` [Compound 58, 1-(tetrahydropyran-4-ylmethyl)-1H-indazole-5-sulfonic acid isobutyl(2-trifluoromethylphenyl)amide], the IC50 is 100 to 1000 nM.
As for `CC(C)CN(c1ccc(C(F)(F)F)cc1)S(=O)(=O)c1ccc2c(cnn2CC2CCOCC2)c1` [Compound 59, 1-(tetrahydropyran-4-ylmethyl)-1H-indazole-5-sulfonic acid isobutyl(4-trifluoromethylphenyl)amide], the figure is > 1000 nM; as for `CCc1ccc(N(CC(CO)CCl)S(=O)(=O)c2ccc3c(cnn3CC3CCOCC3)c2)cc1` (stereo not drawn) [Compound 60, 1-(tetrahydropyran-4-ylmethyl)-1H-indazole-5-sulfonic acid (3-chloro-2-hydroxymethylpropyl)(4-ethylphenyl)amide], > 1000 nM; as for `CCc1ccc(N(CC(C)C)S(=O)(=O)c2ccc3[nH]nc(OCC4CCOCC4)c3c2)cc1` [Compound 61, 3-(tetrahydropyran-4-ylmethoxy)-1H-indazole-5-sulfonic acid (4-ethylphenyl)isobutylamide], > 1000 nM.
For `CCc1ccc(N(CC(C)C)S(=O)(=O)c2ccc3c(C=C4CCOCC4)n[nH]c3c2)cc1` [Compound 62, 3-(tetrahydropyran-4-ylidenemethyl)-1H-indazole-6-sulfonic acid (4-ethylphenyl)isobutylamide] the value was < 100 nM; for `CCc1ccc(N(CC(C)C)S(=O)(=O)c2ccc3c(CN4C[C@@H](C)O[C@@H](C)C4)n[nH]c3c2)cc1` [Compound 65, 3-((cis)-2,6-dimethylmorpholin-4-ylmethyl)-1H-indazole-6-sulfonic acid (4-ethylphenyl)isobutylamide], > 1000 nM; for `CCc1ccc(N(CC(C)C)S(=O)(=O)c2ccc3c(CN4CCOC[C@@H]4C)n[nH]c3c2)cc1` [Compound 66, 3-((S)-3-methylmorpholin-4-ylmethyl)-1H-indazole-6-sulfonic acid (4-ethylphenyl)isobutylamide], 100 to 1000 nM.
For `Cc1ccc(N(CC(C)C)S(=O)(=O)c2ccc3c(cnn3CC3CCOCC3)c2)c(C#N)c1` [Compound 70, 1-(tetrahydropyran-4-ylmethyl)-1H-indazole-5-sulfonic acid (2-cyano-4-methylphenyl)isobutylamide], the concentration for half-maximal inhibition (IC50) fell in the range of 100 to 1000 nM.
Consider `CCc1ccc(N(CC(C)C)S(=O)(=O)c2cc(C(=O)OC)c3c(cnn3CC3CCOCC3)c2)cc1` [Compound 74, methyl 5-[(4-ethylphenyl)isobutylsulfamoyl]-1-(tetrahydropyran-4-ylmethyl)-1H-indazole-7-carboxylate], for which the IC50 was > 1000 nM.

What is called IC50 is the concentration that gives 50% inhibition.

For the origin of these results see patent US10752617B2 (GALDERMA RESEARCH & DEVELOPMENT, priority 2014, dated 2020).
